Measurements: US20110065760A1, “COMPOUNDS FOR THE INHIBITION OF ROTAMASES AND USE THEREOF” (Jerini AG, priority 2002, published 2011)
Like-named read-outs stand apart in the source and are kept apart here.

What was measured:
[1] = biological target: hPin1 (Homo sapiens, UniProt Q13526); assay: protease-coupled PPIase assay, hPin1; type: biochemical; conditions: 6 nM hPin1, substrate Ac-Ala-Ala-Ser(PO3H2)-Pro-Arg-pNA, trypsin, pH 7.8, 6° C.; read-out: IC50 class, Target T-1 (hPin1)
[2] = biological target: hFKBP12 (Homo sapiens, UniProt P62942); assay: protease-coupled PPIase assay, hFKBP12; type: biochemical; conditions: 20 nM hFKBP12, substrate Suc-Ala-Phe-Pro-Phe-pNA, chymotrypsin, pH 7.8, 6° C.; read-out: IC50 class, Target T-2 (hFKBP12)
[3] = biological target: hCyp18 (Homo sapiens, UniProt P62937); assay: protease-coupled PPIase assay, hCyp18; type: biochemical; conditions: 10 nM hCyp18, substrate Suc-Ala-Phe-Pro-Phe-pNA, chymotrypsin, pH 7.8, 6° C.; read-out: IC50 class, Target T-3 (hCyp18)
[4] = biological target: LpCyp18 (Legionella pneumophila, UniProt Q5ZRZ4); assay: biochemical; conditions: IC50 class, Target T-4 (LpCyp18)
[5] = biological target: EcParvulin (Escherichia coli, UniProt P0A9L5); assay: protease-coupled PPIase assay, EcParvulin; type: biochemical
[6] = biological target: T1, Papain (Carica papaya, UniProt P00784); assay: papain assay; type: biochemical; conditions: 16 μg/ml papain, 2 mM Bz-DL-Arg-pNA, pH 6.5, 30° C., 30 min incubation; read-out: IC50 class, Target T-6 (Papain)
T1 sequence (P00784 134-345): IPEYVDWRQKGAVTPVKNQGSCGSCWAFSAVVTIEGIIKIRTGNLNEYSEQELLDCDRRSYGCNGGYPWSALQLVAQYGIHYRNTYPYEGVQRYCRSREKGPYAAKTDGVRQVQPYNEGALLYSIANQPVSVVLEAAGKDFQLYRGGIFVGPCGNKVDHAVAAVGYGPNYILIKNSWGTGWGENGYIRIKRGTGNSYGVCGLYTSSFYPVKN
Description: (§1) In order to investigate the impact of some of the inventive compounds on the activity of key proteases the following assay was performed: Protease activities were measured spectrophotometrically at 30° C. according to Schomburg and Salzmann (Schomburg, B.; Salzmann M. GBF: Enzyme Handbook. Springer Verlag, Berlin Heidelberg, 1991) and Bergmeyer et al. (Bergmeyer, H. U.; Bergmeyer, J.; Graβl, M. Methods of Enzymatic Analysis, Vol. V Enzymes 3: Peptides, Proteinases and Their Inhibitors. pp 55-371, VCH, Weinheim, 1988). The release of 4-nitroaniline was determined at 390 nm with a Spectramax Plus UV/Vis spectrophotometer (Molecular Devices). The cathepsin B assay was performed in a reaction mixture containing 0.2 μg/ml cathepsin B, 2 mM Z-Arg-Arg-pNA in 88 mM KH2PO4, 12 mM Na2HPO4, 1.33 mM EDTA, 0.03% Brij 35 (pH 5.8). The trypsin assay was carried out in a reaction mixture containing 0.1 μg/ml trypsin and 120 μM Ac-Ala-Ala-Ser(PO3H2)-Pro-Arg-pNA in 35 mM HEPES (pH 7.8) and the papain assay in a mixture consisting of 16 μg/ml papain and 2 mM Bz-DL-Arg-pNA in 10 mM Na2HPO4, 2 mM L-Cys, 5 mM EDTA (pH 6.5). In general, reactions were started by addition of peptide substrate after a 30 min incubation of 1-100 μM effector with given concentrations of enzyme.

[7] = biological target: T2, Trypsin (UniProt P00760); assay: trypsin assay; type: biochemical; conditions: 0.1 μg/ml trypsin, 120 μM Ac-Ala-Ala-Ser(PO3H2)-Pro-Arg-pNA, pH 7.8, 30° C., 30 min incubation; read-out: IC50 class, Target T-7 (Trypsin)
T2 sequence (P00760 1-246): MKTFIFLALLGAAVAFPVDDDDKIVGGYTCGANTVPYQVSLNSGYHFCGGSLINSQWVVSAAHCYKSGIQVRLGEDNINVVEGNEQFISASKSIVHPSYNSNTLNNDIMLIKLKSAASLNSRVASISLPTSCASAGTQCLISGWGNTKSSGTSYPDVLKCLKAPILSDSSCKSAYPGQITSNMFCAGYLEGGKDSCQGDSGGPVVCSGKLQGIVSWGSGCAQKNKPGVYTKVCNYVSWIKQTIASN
Description: as §1

[8] = biological target: cathepsin B (Homo sapiens, UniProt P07858); assay: cathepsin B assay; type: biochemical; conditions: 0.2 μg/ml cathepsin B, 2 mM Z-Arg-Arg-pNA, pH 5.8, 30° C., 30 min incubation; read-out: IC50 class, Target T-8 (Cathepsin)
Description: as §1

[9] = WST-1 cytotoxicity assay, HL-60; type: cell-based; conditions: human, HL-60 cells (acute myeloid leukemia); WST-1, 48 h incubation; read-out: EC50 class, cytotoxic effect, CL-1 (HL-60)
Description: (§2) For this cytotoxic evaluation of the compounds the commercial available WST-1 assay (Roche) was used according to the manufacturer's instructions. The assay is based on the cleavage of the tetrazolium salt WST-1 by mitochondrial dehydrogenases found in viable cells. In general compounds were added to cells cultured in 96-well plates at 37° C. After 48 h of incubation 10 μl of WST-1 solution was added. The formazan dye was analyzed with an ELISA plate reader at (450 vs. 620) nm. CL-1: human acute myeloid leukemia, HL-60 CL-2: human cervix carcinoma, HeLa CL-3: human prostate carcinoma, PC-3 CL-4: human colon adenocarcinoma, Caco-2 CL-5: human breast adenocarcinoma, MCF-7

[10] = WST-1 cytotoxicity assay, HeLa; type: cell-based; conditions: human, HeLa cells (cervix carcinoma); WST-1, 48 h incubation; read-out: EC50 class, cytotoxic effect, CL-2 (HeLa)
Description: as §2

[11] = WST-1 cytotoxicity assay, PC-3; type: cell-based; conditions: human, PC-3 cells (prostate carcinoma); WST-1, 48 h incubation; read-out: EC50 class, cytotoxic effect, CL-3 (PC-3)
Description: as §2

[12] = WST-1 cytotoxicity assay, Caco-2; type: cell-based; conditions: human, Caco-2 cells (colon adenocarcinoma); WST-1, 48 h incubation; read-out: EC50 class, cytotoxic effect, CL-4 (Caco-2)
Description: as §2

[13] = system: tumor cell lines (HL-60, HeLa, PC-3, Caco-2, MCF-7); assay: WST-1 cytotoxicity assay, tumor cell lines (panel statement); type: cell-based, human; conditions: WST-1, 48 h; table 4
Description: as §2

[14] = WST-1 cytotoxicity assay, MCF-7; type: cell-based; conditions: human, MCF-7 cells (breast adenocarcinoma); WST-1, 48 h incubation; read-out: EC50 class, cytotoxic effect, CL-5 (MCF-7)
Description: as §2

[15] = system: cyclin D1 in MCF-7 and HeLa cells; assay: Cyclin D1 down regulation (western blot marker analysis); type: cell-based, human
Description: MCF-7 (5×10^5 cells/well) and HeLa cells (1.5×10^5 cells/well) were seeded in 6-well plates and incubated at 37° C. over night. Compounds or DMSO (final solvent concentration 0.1%) were added to the cells and incubated for different times as indicated. Subsequently, cells were lysed in RIPA buffer for 30 min on ice and centrifuged for 20 min at 4° C. After addition of electrophoresis sample buffer (4×) and 50 mM DTT to the supernatant, samples were boiled for 4 min at 95° C. Samples (equivalent to 2×10^5 cells/well) were run on a 15% SDS gel followed by blotting onto PVDF membrane.
The membrane was blocked for 1 h in 10 mM Tris (pH 7.5), 100 mM NaCl, 0.1% Tween-20 and 5% non-fat dry milk (blocking buffer) and incubated for 1 h with mouse anti-hCyclin D1 monoclonal antibody (clone DCS-6, BD Biosciences) diluted to 1 μg/ml in blocking buffer. Blots were washed 3×10 min with 10 mM Tris (pH 7.5), 100 mM NaCl, 0.1% Tween-20 (washing buffer) and incubated with 0.7 μg/ml peroxidase-conjugated sheep anti-mouse IgG (Sigma) in blocking buffer for 1 h. After washing 3×10 min with washing buffer, the plot was developed with the ECL+ detection kit (Amersham Biosciences).

[16] = system: Hela cells; assay: DAPI staining; type: cell-based, human; conditions: FIG. 3
Description: Hela cells grown on poly-L-Lys-coated coverslips were fixed with 2% paraformaldehyde/MeOH.
Cellular DNA was stained with DAPI staining buffer (100 mM Tris (pH 7.4), 150 mM NaCl, 1 mM CaCl2, 0.5 mM MgCl2, 0.1% nonidet P-40, 1 μg/ml DAPI (Molecular Probes)). All the steps were performed at room temperature, and cells were washed two times with PBS after each step. Finally, cells were mounted in 80% glycerol/PBS.

Sequence of hCyp18 (P62937 whole entry): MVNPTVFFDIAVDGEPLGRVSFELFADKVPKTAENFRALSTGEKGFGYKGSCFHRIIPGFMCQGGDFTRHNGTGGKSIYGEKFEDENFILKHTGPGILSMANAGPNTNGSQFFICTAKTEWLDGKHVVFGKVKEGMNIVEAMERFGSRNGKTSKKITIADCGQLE
Sequence of LpCyp18 (Q5ZRZ4 1-164): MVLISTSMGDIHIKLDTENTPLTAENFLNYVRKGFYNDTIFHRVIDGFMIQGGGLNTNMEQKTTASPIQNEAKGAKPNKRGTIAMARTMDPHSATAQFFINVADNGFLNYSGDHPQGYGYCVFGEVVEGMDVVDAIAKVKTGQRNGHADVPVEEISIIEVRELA
Sequence of hPin1 (Q13526 whole entry): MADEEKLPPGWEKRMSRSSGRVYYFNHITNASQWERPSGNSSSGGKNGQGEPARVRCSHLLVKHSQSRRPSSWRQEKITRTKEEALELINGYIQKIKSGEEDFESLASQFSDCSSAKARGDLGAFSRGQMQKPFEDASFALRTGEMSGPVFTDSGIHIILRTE
Sequence of EcParvulin (P0A9L5 whole entry): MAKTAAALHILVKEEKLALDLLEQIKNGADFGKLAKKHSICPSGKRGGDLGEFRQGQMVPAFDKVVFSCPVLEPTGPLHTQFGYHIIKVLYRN
Sequence of hFKBP12 (P62942 whole entry): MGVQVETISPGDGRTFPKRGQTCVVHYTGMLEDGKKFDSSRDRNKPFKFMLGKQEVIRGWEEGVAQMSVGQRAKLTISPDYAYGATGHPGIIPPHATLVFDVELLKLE

Structure (SMILES)	IC50 [1] [µM]	IC50 [2] [µM]	IC50 [3] [µM]	IC50 [4] [µM]	IC50 [5] [µM]	IC50 [6] [µM]	IC50 [7] [µM]	IC50 [8] [µM]	EC50 at 48 h [9] [µM]	EC50 at 48 h [10] [µM]	EC50 at 48 h [11] [µM]	EC50 at 48 h [12] [µM]	cytotoxic effect on the tumor cell lines tested [13]	EC50 at 48 h [14] [µM]	cyclin D1 down regulation [15]	IC50 ([5]; 20 nM EcParvulin, substrate Suc-Ala-Phe-Pro-Phe-pNA, chymotrypsin, pH 7.8, 6° C., read-out: IC50 class, Target T-5 (EcParv)) [µM]	induction of apoptosis (DAPI staining, fluorescence microscopy) [16]
CC(C)(C)CC(C)(C)NC(=O)Nc1cc(Cl)c(O)c(Cl)c1 [Compound 703]	< 1	> 100	> 100	> 100	1 to 10	> 100	50 to 100	> 100	10 to 50	10 to 50	10 to 50	10 to 50	particular relevance	–	–	–	–
Cc1c(Cl)cc(NCc2ccco2)c(O)c1Cl [Compound 646]	–	–	–	–	–	> 100	–	> 100	–	–	–	–	–	–	–	–	–
CC(C)NC(=S)Nc1cc(-c2nc3ccccc3s2)cc(Cl)c1O [Compound 639]	< 1	–	–	–	–	–	–	–	< 10	–	–	–	–	10 to 50	particular relevance	–	–
CC(C)=CC(=O)Nc1cc(Cl)c(O)c(Cl)c1 [Compound 1296]	1 to 10	> 100	10 to 50	> 100	10 to 50	> 100	> 100	> 100	50 to 100	–	–	–	–	–	–	–	–
CC(C)(C)CC(C)(C)NC(=O)Nc1cc(Cl)cc(Cl)c1O [Compound 30]	1 to 10	> 100	> 100	> 100	–	–	–	–	< 10	–	–	< 10	–	–	particular relevance	> 100	induce apoptosis
CC(CC(=O)Nc1cc(Cl)c(O)c(Cl)c1)CC(C)(C)C (stereo not drawn) [Compound 1273]	< 1	> 100	> 100	> 100	1 to 10	> 100	> 100	> 100	10 to 50	50 to 100	10 to 50	10 to 50	particular relevance	–	–	–	–
Cc1c(Cl)cc(NC(=O)NCCCCCCNC(=O)Nc2cc(Cl)c(C)c(Cl)c2O)c(O)c1Cl [Compound 673]	< 1	–	–	–	–	–	–	–	–	–	–	–	particular relevance	< 10	particular relevance	–	–
